Data set [1] relates to gestating ICR mice. As to the kind of experiment: in vivo teratology study, single oral dose on day 11 of gestation. Details: species or system mouse. The settings on record: mouse, in vivo; for # Litters Normal / Teratogenic Effects % Cleft Palate / Teratogenic Effects % Limb Defects / Teratogenic Effects % Resorbed: po. As to the method:
The methodology of the study is described as follows:
ICR mice (Ace Animals, Boyertown, Pa.) were used. Mature male and virgin female ICR mice were housed in environmentally controlled rooms and acclimatized to a 12 hour light/dark cycle (light cycle 6 A.M. to 6 P.M.) for 2 weeks prior to use. All animals were maintained on Purina Lab Chow and tap water ad libitum. A group of 3-4 females was caged with a single male of proven fertility for 4 hours. Presence of a vaginal plug immediately afterward was regarded as evidence of successful mating, and this day was designated as day 0 of gestation.
[…] All animals were killed by cervical dislocation under mild ether anesthesia on day 17 of gestation. Upon laparotomy, the fetuses were examined for external malformations and weighed; one-half of each litter was then fixed in 95% ethanol and processed for staining of the skeleton by the rapid, alizarin red-S dye method. These preparations were examined under a dissection microscope to screen for abnormalities in the axial and the appendicular skeleton. The other half of each litter was fixed in Bouin's solution and examined by freehand razor serial sectioning to screen for anomalies of the brain, face, and palate.
Differences in dose-related incidence of malformations and resorptions were assessed by computing percentages of affected conceptuses among total implantation sites. The groups were compared statistically by a method based on Student's t-tests of arcs in square root transformed percentages. Values at 0.05 probability level were considered significant. The median effective dose was calculated by logarithmic curve fitting of the dose-response data.

Data set [2] has as its system limb bud mesenchymal cells. Nature of the data set: inhibition of chondrogenesis in high-density spot cultures of limb bud mesenchymal cells. The note with it: Mus musculus; limb bud mesenchymal cell spot cultures, terminated 96 hours after plating; read-out: IC50 (concentration which inhibited chondrogenesis by 50%). The class given is cell-based. From the text:
In an in vitro bioassay which measures inhibition of chondrogenesis (bone formation) in […] as a classic measure of teratogenecity the results shown in Table 2 were obtained. The assay is described as follows:
High-density “spot” cultures of limb bud mesenchymal cells were used to compare the ability of various concentrations of test drugs to suppress chondrogenic differentiation as a bioassay. Forelimb buds of mouse embryos on day 12 of gestation (54±2 somites) were dissociated in a trypsin-EDTA solution, and the resultant single-cell suspension was plated as 20-μl spots (200,000 cells/spot) on plastic culture dishes. Retinoid concentrations ranging from 0.3 ng/ml to 3 μg/ml (1 nM-10 μM) were added to the culture medium (Eagle's MEM+10% fetal bovine serum, GIBCO) 24 hours after initial plating. […]
The cultures were terminated 96 hours after plating, at which time the medium was removed and the cells were fixed for 1 hour in 10% formalin containing 0.5% cetylpyridinium chloride. The cultures were rinsed in acetic acid and stained for 1 hour in 0.5% Alcian blue solution at pH 1.0, differentiated in 3% acetic acid, and then dehydrated in ethanol and scored for chondrogenesis under the microscope. […] The number of cartilage nodules stained in the whole spot, mean number of nodules, and standard deviations were calculated for four replicate cultures per treatment. […]

Data set [3] in a line: pharmacokinetic study, drug concentration in maternal plasma and embryo after oral intubation. The class given is in vivo. The note with it: mice, 10mg/kg dose, FIG. 1. As to the method: FIG. 1 is a graph showing the concentration of compound AGN 191701 in nanograms per ml, or nanograms per gram as indicated on the chart, in the plasma and embryo of mice at various times after oral intubation of a single dose of 10 mg/kg of the compound.
In contrast, the teratogenecity of prior art compound AGN 191183 is so high that even an undetectably low concentration of the drug already causes defective embryos.

Data set [4] has as its system human sebocyte cultures. Nature of the data set: human sebocyte culture 3H-thymidine incorporation (DNA synthesis, anti-proliferative effect). The data set is classed as cell-based. The settings on record: human sebocytes, 8 days treatment, FIG. 2. From the text: The retinoid like activity of the compounds used in accordance with the method of treatment of the present invention and of the novel compounds of the invention can be confirmed by several assay procedures. An assay involving human sebocyte cultures measures the inhibition of ^3H-thymidine into cells, and thus measures inhibition of DNA synthesis and thus an anti-proliferative effect on sebocyte (i.e. a sebostatic effect). This assay is also considered a specific assay for effectiveness of a compound as a potential anti-acne drug. The test is conducted as follows.
Face-lift or forehead reduction skins from cosmetic surgeries were used as sources of human sebaceous gland cells (sebocytes).
Isolated sebocytes were plated in type 1 collagen coated-dishes in DMEM/F12 (1:1) medium supplemented with 8% fetal bovine serum, 2% human serum, 10 ng/ml epidermal growth factor, 1 nM cholera toxin, 1 μM hydrocortisone, and penicillin/streptomycin/amphotericin B. Secondary cultures were prepared by plating Dispase dissociated cells in collagen coated 24-well plates.
Sub-confluent secondary cultures were treated with the test compounds or ethanol vehicle every 2-3 days for 8 days in the above medium from which the total serum concentration was reduced to 2% and hydrocortisone was not included. During the last 6 hours of treatment, the cultures were labeled with 2 μCi/ml ^3H-thymidine. DNA from the cells were extracted by thichoroacetic acid and perchloric acid, and assayed for radioactivity by scintillation counting and for content of DNA by the diphenylamine calorimetric method. The results were expressed as CPM/μg DNA, or as per cent of vehicle control which incorporated about 1,000-1,500 cpm/μg DNA.

Data set [5] has as its system tissue transglutaminase (tTGASE) in HL-60 cells. As to the kind of experiment: Tissue Transglutaminase Assay (tTGASE) in HL-60 Cells. The class given is cell-based. The settings on record: FIGS. 6-9. The method, then: Other assays in which the retinoid like activity of the compounds used in accordance with the invention are confirmed are the HL-60 transglutaminase induction and HL-60 differentiation assay, the procedures of which are described as follows.
HL-60 cells were grown as a suspension culture in T-162 cm^2 flasks in serum-free RPMI 1640 medium supplemented with insulin (5 μg/ml), transferrin (5 μg/ml), and selenium (3 nM). The cells (1×10^6 cells/well, in 6-well dishes) were treated with serial dilutions of test compounds in the above RPMI 1640 medium which was additionally supplemented with […] dibutyryl cyclic adenosine monophosphate, a component found to be necessary for efficient differentiation of the cells. Ethanol was used in the vehicle control cultures. After 1 days of incubation at 37° C. in a 7.5% CO2 incubator, the cells were collected in a set of tubes and pelleted by centrifugation. The cells were lyzed in a buffer containing 20 mM Tris-HCl, pH 7.5, 1 mM EDTA, and 0.5% Triton X-100. An aliquot of the cell lysate was assayed for tTGASE activity in a reaction mixture containing 20 mM Tris-HCl, pH 7.5, 5 mM CaCl2, 2 mg/ml dimethylcasein, 15 mM B-mercaptoethanol and 50 μCi/ml [2,3-^3H] putrescine dihydrochloride. The reaction was carried out for 60 minutes in a 37° C. shaking water bath. The reaction was stopped by an addition of 10% trichloroacetic acid containing 0.1% putrescein. An aliquot of the stopped reaction mixture was spotted on Whatman 3 MM filter discs. The filter discs, along with the control blank filter discs, were washed twice with 5% trichloroacetic acid containing 0.1% putrescein and twice with methanol. After drying under a heat lamp, the radioactivity in the filter discs was determined by scintillation counting. An aliquot of the cell lysates was also assayed for […] by the Bradford method (Bio-Rad). After subtracting the radioactivity from the control blank filter discs, the data were calculated and expressed as pmol/min/mg protein.
As is well understood in the art, induction of tranglutaminase activity in the just-described assay is an early marker of retinoid like activity.

[6] abbreviates: female, ICR, 1 mg/kg, 17 day of gestation.
The mark [7] stands for this setting: female, ICR, 10 mg/kg, 17 day of gestation.
Setting [8] is: female, ICR, 100 mg/kg, 17 day of gestation.

≈ marks a conversion by molar mass, not a printed value.

Take `C/C(=C\c1cc(C(=O)O)cs1)c1cc2c(cc1C)C(C)(C)CCC2(C)C` [AGN 191701, 2-[(E)-2-(5,6,7,8-Tetrahydro-3,5,5,8,8-pentamethylnaphthalen-2-yl)propen-1-yl]thiophene-4-carboxylic Acid]: the “times less teratogenic than AGN 191183” value in data set [1] (female, ICR, 17 day of gestation) was “approximately 10^4 times”. For the same molecule, in data set [1] (setting [6]), the “# Litters Normal” value worked out at 1, the “Teratogenic Effects % Cleft Palate” value was found to be 0%, the “Teratogenic Effects % Limb Defects” value worked out at 0% and the “Teratogenic Effects % Resorbed” value amounted to 18%. In data set [1] (setting [7]), the “# Litters Normal” value was found to be 3, the “Teratogenic Effects % Cleft Palate” value is on record as 0%, the “Teratogenic Effects % Limb Defects” value is 0% and the “Teratogenic Effects % Resorbed” value worked out at 14%. For the same molecule, in data set [1] (setting [8]), the “# Litters Normal” value turned out to be 2, the “Teratogenic Effects % Cleft Palate” value is reported as 19%, the “Teratogenic Effects % Limb Defects” value stood at 22% and the “Teratogenic Effects % Resorbed” value amounted to 2%. In addition, the “teratogenic effect (in words)” value in data set [1] is “very little teratogeneic effect”. Also, the IC50 in data set [2] was determined as 19 µg/mL (≈ 51.6 µM). The “concentration of the drug in the maternal plasma and in the embryo” value in data set [3] is on record as “present in substantial concentration”. For the same molecule, the “inhibition of 3H-thymidine incorporation (effectiveness in sebocyte assay)” value in data set [4] is listed as “effective”. Besides, the “induction of transglutaminase activity” value in data set [5] is reported as “active”.

Values taken from patent US6624188B1, “Method of treatment with compounds having retinoid-like activity and reduced skin toxicity and lacking teratogenic effects” (Allergan, Inc., priority 1992, dated 2003).
